From US11655468B2, “Methods and compositions of chemically modified phage libraries” (priority 2018, dated 2023)
Entries after “also recorded” stand apart in the source; their conditions may differ. Where two headings read alike, the source gives them in different places. Non-standard residues stand in square brackets, D forms with d. Residues, ends and D or L forms follow the SMILES beside them. *: point of attachment. X2 = O=C1OC2(c3ccc(C(=O)*)cc31)c1cc(Br)c(O)c(Br)c1Oc1c2cc(Br)c(O)c1Br; 5FAM = O=C1OC2(c3ccc(O)cc3Oc3cc(O)ccc32)c2ccc(C(=O)*)cc21; X1 = CC(=O)c1ccc(OCCCNC(=O)C*)cc1B(O)O; Dap = NC[C@H](N)C(=O)O

Key:
[1] = test system: methicillin-resistant strain of S. aureus (ATCC 43300); experiment: Fluorescence microscopy of MRSA staining by TAMRA-labeled peptide; type: cell-based; details: 2 μM (FIG. 17)
Description: (§1) Each bacterial strain was grown to an OD600˜1.0, washed and diluted with PBS (pH 7.4). The cells (˜1×10^9 cfu/mL) were incubated with various concentrations of TAMRA-labeled peptide with or without BSA in PBS for 1 hour. The same microscopy procedure described was implemented using filter set 20 HE (excitation: BP 546/12, emission: BP 607/80) suitable for detection of TAMRA fluorescence and images were processed consistently using ImageJ software.

HSA = HSA (Homo sapiens, UniProt P02768); experiment: Fluorescence anisotropy protein binding (HSA); details: 500 nM peptide, PBS pH 7.4, 1 hour, high protein concentrations
Sequence of HSA (P02768 25-609): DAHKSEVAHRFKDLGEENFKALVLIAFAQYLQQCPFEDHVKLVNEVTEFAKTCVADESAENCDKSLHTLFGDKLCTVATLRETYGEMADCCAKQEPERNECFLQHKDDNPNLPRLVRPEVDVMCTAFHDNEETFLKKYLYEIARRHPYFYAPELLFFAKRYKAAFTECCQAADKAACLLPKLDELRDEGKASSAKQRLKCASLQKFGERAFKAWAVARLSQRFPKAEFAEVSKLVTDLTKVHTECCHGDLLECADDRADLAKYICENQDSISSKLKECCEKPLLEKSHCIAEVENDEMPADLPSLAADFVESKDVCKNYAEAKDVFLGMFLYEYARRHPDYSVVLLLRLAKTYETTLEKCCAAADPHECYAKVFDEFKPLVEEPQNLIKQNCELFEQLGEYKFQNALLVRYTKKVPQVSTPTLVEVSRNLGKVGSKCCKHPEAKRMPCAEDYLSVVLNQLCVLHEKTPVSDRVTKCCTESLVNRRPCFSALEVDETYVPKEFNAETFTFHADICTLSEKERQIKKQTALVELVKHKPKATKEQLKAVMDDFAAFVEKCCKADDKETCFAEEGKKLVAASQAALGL
Description: (§2) (A) Flow cytometry comparison of HSA and BSA in enhancing KAM5 binding to S. aureus. (B) Assessing protein binding of KAM5 using fluorescence anisotropy, for which various concentrations of BSA or HSA were delivered to a 96-well plate (Corning 3603) in PBS (pH 7.4). Peptide was added at a final concentration of 500 nM and incubated for 1 hour. Anisotropy values were measured (Ex: 495 nm, Em: 532 nm) and plotted as an average of three trials with standard deviations. Fluorescein was used as a negative control. The results clearly show binding of KAM5 to these serum proteins.

S. aureus [2] = type: cell-based, S. aureus (ATCC 6538); details: for S. aureus cell death by controls: 1 μM and 2 μM, photoirradiation
Description: (§3) Each bacterial strain was grown to an OD600˜0.7, washed and diluted with PBS (pH 7.4). The cells (˜1×10^8 cfu/mL) were incubated with eosin-conjugated peptides and various controls for 15 minutes. Half of the bacterial suspension was removed and placed in a 96-well plate (Corning 3595). The well was subjected to photoirradiation on the Zeiss microscope using the 20× objective and fluorescein filter to emit blue light for 15 minutes. Cells were diluted in LB media, spread on LB agar plates and incubated overnight at 37° C. The A. baumannii (LOS−) strain was spread on LB agar (+10 μg/mL polymyxin b) and incubated for 24 hours. The amount of cell killing was calculated by comparing the amount of colonies of treated bacteria to an untreated PBS control. All experiments were repeated and the average cell killing of two trials was plotted.

S. aureus [3] = experiment: Fluorescence microscopy of S. aureus staining by TAMRA-labeled peptides; type: cell-based, S. aureus (ATCC 6538)
Description: as §1

S. aureus [4] = experiment: Flow cytometry analysis of S. aureus staining by FAM-labeled peptides; type: cell-based, S. aureus (ATCC 6538); details: for S. aureus staining of control peptides: 1 μM peptide, 1 mg/mL BSA (FIG. 2C)
Description: (§4) Each bacterial strain was grown to an OD600˜0.5, washed and diluted with PBS (pH 7.4). The cells (˜1×10^7 cfu/mL) were incubated with various concentrations of FAM-labeled peptide with or without BSA in PBS. After incubation for 1 hour, samples were subjected to cytometric analysis. Data obtained was analyzed via BD FACSDiva software and median fluorescent values were computed from the generated histograms. All flow cytometry experiments were repeated and generated consistent results (see FIG. 14).

BSA = BSA (Bos taurus, UniProt P02769); experiment: Fluorescence anisotropy protein binding (BSA); parameters: species or system bovine; details: 500 nM peptide, PBS pH 7.4, 1 hour, high protein concentrations
Description: as §2

Escherichia coli = experiment: Flow cytometry and fluorescence microscopy of E. coli staining; type: cell-based
Description: as §4, §1

Bacillus subtilis = experiment: Flow cytometry and fluorescence microscopy of B. subtilis staining; type: cell-based; details: up to 10 μM peptide; flow cytometry with 1 mg/mL BSA and microscopy
Description: as §4, §1

E. coli = experiment: Photoinactivation of bacteria, E. coli; type: cell-based; details: 2 μM peptide followed by photoirradiation
Description: as §3

MRSA = experiment: Photoinactivation of bacteria, MRSA; type: cell-based, S. aureus (ATCC 43300); details: same experimental conditions, photoirradiation (FIG. 19)
Description: as §3

HEK293T cells = details: MTT, 24 hrs, with or without photoirradiation
Description: HEK293T cells were grown in complete DMEM (containing 10% FBS, 2 mM glutamine and 1% Penicillin/Streptomycin) to about 80% confluency in a 150 mm dish. Cells were removed from the plate with 0.25% trypsin protease solution (containing EDTA) at 37° C. for 5 minutes and pelleted (3,500 rpm, 5 minutes). Cells were diluted in DMEM, distributed to a 96-well plate (Corning 3595) at 30,000 cells/well (100 μL/well) and incubated for 24 hours to allow for cell adherence. 1 μL of 100× DMSO solutions were added to each well and incubations/photoirradiation were performed as described above. After 24 hours, the supernatant culture medium was carefully removed and the cells were incubated with 100 μL MTT (0.5 mg/mL in RPMI) for 4 hours followed by the addition of 10% SDS in 0.01 M HCl (100 μL) and incubation overnight.
(§5) All incubations were performed at 37° C. and 5% CO2. Absorbance readings were measured at 570 nm and cell viability was normalized to the DMSO control as an average of three trials for non-irradiated samples and an average of two trials for photoirradiated samples with standard deviations.

B. subtilis = experiment: Photoinactivation of bacteria, B. subtilis; type: cell-based; details: 2 μM peptide followed by photoirradiation
Description: as §3

Jurkat cells = details: MTT, 24 hrs, with or without photoirradiation
Description: Jurkat cells were cultured in RPMI 1640 (containing 10% FBS, 2 mM glutamine, 1% Penicillin/Streptomycin) and maintained at 5×10^5 cells/mL. Cells were diluted in RPMI and distributed to a 96-well plate (Corning 3595) at 50,000 cells/well (200 μL/well). […] A positive control for viability of DMSO treated cells along with a positive control for cytotoxicity of camptothecin at 50 μM (5 mM DMSO stock) were included. For photoirradiation, the cells were incubated with the compound of interest for 15 minutes, each well was irradiated for 15 minutes (see photoinactivation protocol-paragraph 0053) and the plate was returned to the incubator for the remainder of the 24 hour incubation. Cells were centrifuged for 5 minutes (180 rcf) and the supernatant culture medium was carefully removed. 100 μL of 3-(4,5-dimethylthiazol-2-yl)-2,5-diphenyltetrazolium bromide (MTT, 0.5 mg/mL in RPMI) was added to each well and incubated for 4 hours followed by the addition of 10% SDS in 0.01 M HCl (100 μL) and incubation overnight.
as §5

A. baumannii (LOS−) [5] = experiment: Fluorescence microscopy of A. baumannii (LOS−) staining; type: cell-based, A. baumannii (AB5075 LOS−); details: TAMRA labeled peptide, 2 μM
Description: as §1

LOS− A. baumannii = experiment: Photoinactivation of bacteria, A. baumannii (LOS−); type: cell-based, A. baumannii (AB5075 LOS−); details: for A. baumannii (LOS−) cell death by controls: at these concentrations, photoirradiation (FIG. 5C)
Description: as §3

[6] = test system: wild type A. baumannii (LOS+); experiment: Fluorescence microscopy and flow cytometry of wild type A. baumannii (LOS+) staining; type: cell-based, A. baumannii (AB5075); details: microscopy, same conditions as LOS− strain (legend FIG. 5B: 10 μM for LOS+)
Description: as §4, §1

A. baumannii (LOS−) [7] = experiment: Flow cytometry analysis of A. baumannii (LOS−) staining; type: cell-based, A. baumannii (AB5075 LOS−); details: for binding of negative controls to A. baumannii (LOS−) compared with KAM8: 1 μM, 1 mg/mL BSA (FIG. 21B)
Description: as §4

[8] = Aggregation of peptide in flow cytometry samples; type: physicochemical; details: concentrations higher than 3 μM
[9] = test system: wild-type (LOS+) A. baumannii; experiment: Photoinactivation of bacteria, A. baumannii (LOS+); type: cell-based, A. baumannii (AB5075); details: same conditions, 2 μM, photoirradiation (FIG. 5D)
Description: as §3

Compound: CC(=O)c1ccc(OCCCNC(=O)CSC[C@H](NC(=O)[C@H](C)N)C(=O)N[C@H](C(=O)N[C@@H](CO)C(=O)N2CCC[C@H]2C(=O)N[C@@H](CCCNC(=N)N)C(=O)N[C@@H](CO)C(=O)N[C@@H](Cc2c[nH]cn2)C(=O)N[C@@H](CCC(=O)O)C(=O)N[C@@H](CSCC(=O)NCCCOc2ccc(C(C)=O)c(B(O)O)c2)C(=O)NCC(=O)NCC(=O)NCC(=O)N[C@@H](CNC(=O)c2ccc3c(c2)C(=O)OC32c3ccc(O)cc3Oc3cc(O)ccc32)C(N)=O)C(C)C)cc1B(O)O [KAM5, ACmVSPRSHECmGGGDap*] (H-AC(X1)VSPRSHEC(X1)GGG[Dap](5FAM)-NH2; N-terminus assumed)
- staining of methicillin-resistant S. aureus compared with strain used in phage display [1]: equally potent staining
- binding to HSA (HSA): did show binding
- S. aureus cell death by controls (S. aureus [2]): did not elicit cell death
- effect of BSA addition on S. aureus staining (S. aureus [3]; 2 μM peptide, BSA up to 10 mg/mL): did not inhibit
- fluorescence staining of S. aureus cells (S. aureus [3]; TAMRA labeled peptide, 2 μM): strong fluorescence staining
- potency for labeling S. aureus cells compared with KAM14-17 (S. aureus [4]; flow cytometry (FIG. 18)): superior potency
- S. aureus binding potency compared with Hlys-AB1 (S. aureus [4]; flow cytometry, 1 mg/mL BSA (FIG. 15)): much greater than that of Hlys-AB1
- binding to BSA (BSA): did show binding
- staining of E. coli (Escherichia coli; up to 10 μM peptide, flow cytometry with 1 mg/mL BSA and microscopy): negligible staining
- staining of B. subtilis (Bacillus subtilis): negligible staining

Compound: CC(=O)c1ccc(OCCCNC(=O)CSC[C@H](NC(=O)[C@H](C)N)C(=O)N[C@H](C(=O)N[C@@H](CO)C(=O)N2CCC[C@H]2C(=O)N[C@@H](CCCNC(=N)N)C(=O)N[C@@H](CO)C(=O)N[C@@H](Cc2c[nH]cn2)C(=O)N[C@@H](CCC(=O)O)C(=O)N[C@@H](CSCC(=O)NCCCOc2ccc(C(C)=O)c(B(O)O)c2)C(=O)NCC(=O)NCC(=O)NCC(=O)N[C@@H](CNC(=O)c2ccc3c(c2)C(=O)OC32c3cc(Br)c(O)c(Br)c3Oc3c2cc(Br)c(O)c3Br)C(N)=O)C(C)C)cc1B(O)O [KAM5-Eosin, ACmVSPRSHECmGGGDap*] (H-AC(X1)VSPRSHEC(X1)GGG[Dap](X2)-NH2; N-terminus assumed)
- cell killing of S. aureus (S. aureus [2]; 1 μM): 74%
- cell killing of S. aureus (S. aureus [2]; 2 μM): 92%
- cell death of E. coli (E. coli): no significant cell death
- cell killing of MRSA compared with S. aureus strain used in selection (MRSA): comparable percentage of cell killing; also recorded: comparable potency
- mammalian cell toxicity, HEK 293T cells (HEK293T cells): no mammalian cell toxicity
- cell death of B. subtilis (B. subtilis): no significant cell death
- mammalian cell toxicity, Jurkat cells (Jurkat cells): no mammalian cell toxicity

Compound: CC(=O)c1ccc(OCCCNC(=O)CSC[C@H](NC(=O)[C@H](C)N)C(=O)N[C@H](C(=O)N[C@@H](CC(C)C)C(=O)N2CCC[C@H]2C(=O)N[C@@H](CC(N)=O)C(=O)NCC(=O)N2CCC[C@H]2C(=O)N[C@@H](CCCNC(=N)N)C(=O)N[C@@H](CSCC(=O)NCCCOc2ccc(C(C)=O)c(B(O)O)c2)C(=O)NCC(=O)NCC(=O)NCC(=O)N[C@@H](CNC(=O)c2ccc3c(c2)C(=O)OC32c3ccc(O)cc3Oc3cc(O)ccc32)C(N)=O)[C@@H](C)O)cc1B(O)O [KAM8, ACmTLPNGPRCmGGGDap*] (H-AC(X1)TLPNGPRC(X1)GGG[Dap](5FAM)-NH2; N-terminus assumed)
- binding to S. aureus (S. aureus [3]; TAMRA labeled peptide, 2 μM, 1 mg/mL BSA (FIG. 22)): no binding
- fluorescence staining of LOS− A. baumannii (A. baumannii (LOS−) [5]): bright fluorescence staining
- binding to E. coli (Escherichia coli; microscopy, TAMRA labeled peptide, 2 μM, 1 mg/mL BSA (FIG. 22)): no binding
- A. baumannii (LOS−) cell death by controls (LOS− A. baumannii): did not elicit A. baumannii cell death
- fluorescence staining of wild type A. baumannii (LOS+) [6]: little fluorescence staining
- effect of BSA on binding to A. baumannii (LOS−) (A. baumannii (LOS−) [7]; 1 mg/mL BSA): enhanced bacterial staining

Compound: O=C1OC2(c3ccccc31)c1cc(Br)c(O)c(Br)c1Oc1c2cc(Br)c(O)c1Br [eosin, reference compound]
- S. aureus cell death by controls (S. aureus [2]): did not elicit cell death
- A. baumannii (LOS−) cell death by controls (LOS− A. baumannii): did not elicit A. baumannii cell death

Compound: ACAKIFTGCCGGGDap* [KAM14]
- aggregation [8]: aggregation at higher concentrations

Compound: ACTLPNGPRCGGGDap* [KAM8-Cyclic]
- binding of negative controls to A. baumannii (LOS−) compared with KAM8 (A. baumannii (LOS−) [7]): much reduced binding

Compound: ACVSPRSHECGGGDap* [KAM5-Cyclic]
- S. aureus staining of control peptides (S. aureus [4]; flow cytometry): little S. aureus staining

Compound: ACmGPTAKYICmGGGDap* [KAM6]
- S. aureus staining of control peptides (S. aureus [4]; flow cytometry): no bacterial staining
- binding of negative controls to A. baumannii (LOS−) compared with KAM8 (A. baumannii (LOS−) [7]): much reduced binding

Compound: ACmTLPNGPRCmGGGDap* [KAM8-Eosin]
- killing of wild-type (LOS+) A. baumannii [9]: little killing
- cell killing of LOS− A. baumannii (LOS− A. baumannii; 15 min light): > 90%
